We go through two substances from patent US20130078718A1, “CONVERSION OF VASCULAR ENDOTHELIAL CELLS INTO MULTIPOTENT STEM-LIKE CELLS” (PRESIDENT AND FELLOWS OF HARVARD COLLEGE, priority 2010, published 2013).

In one assay the target is T1, ALK2 (Homo sapiens, UniProt Q04771).
T1 construct: Phosphorylation of this receptor was therefore examined in cell lysates; endogenous in cells; host or cells: primary HUVEC and HCMEC
T1 sequence (Q04771 21-509): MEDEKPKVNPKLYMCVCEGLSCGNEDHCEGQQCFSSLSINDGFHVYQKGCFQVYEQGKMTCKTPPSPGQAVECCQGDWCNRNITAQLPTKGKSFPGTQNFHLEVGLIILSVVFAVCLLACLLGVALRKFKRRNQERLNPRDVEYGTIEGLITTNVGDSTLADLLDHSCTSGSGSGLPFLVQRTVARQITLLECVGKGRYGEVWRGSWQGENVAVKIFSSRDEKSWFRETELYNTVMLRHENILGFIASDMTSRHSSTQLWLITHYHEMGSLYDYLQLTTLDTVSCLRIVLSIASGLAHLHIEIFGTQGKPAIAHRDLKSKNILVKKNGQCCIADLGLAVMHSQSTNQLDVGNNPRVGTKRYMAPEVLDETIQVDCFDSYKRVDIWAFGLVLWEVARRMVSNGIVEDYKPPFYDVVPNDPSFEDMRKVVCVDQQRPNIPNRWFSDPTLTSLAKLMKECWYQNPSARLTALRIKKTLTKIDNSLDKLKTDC
Description: ALK2 phosphorylation: immunoprecipitation with ALK2 antibodies, phospho-tyrosine immunoblotting. The note with it: 10 ng/mL, 15 minutes. In kind it is cell-based. The method, then: Human umbilical vein endothelial cells (HUVEC) and human cutaneous microvascular endothelial cells (HCMEC) were provided by J. Bischoff (Children's Hospital Boston) and isolated as previously described^35. […] Cells were grown in culture using EGM-2 medium (Cambrex), containing 10% FBS and 1% Penicillin/Streptomycin, followed by human endothelial serum free medium (Gibco) 24 hours prior to all experimental conditions. Bone marrow derived mesenchymal stem cells (ScienCell Research Laboratories) were grown in mesenchymal stem cell medium (ScienCell Research Laboratories). Human corneal fibroblasts, from a stock initially provided by E. Hay (Harvard Medical School), were grown in RPMI medium, containing 10% FBS and 1% Penicillin/Streptomycin. […]
Immunoassays were performed using the following antibodies at concentrations (and using protocols) recommended by the respective manufacturers: FSP-1 (H00006275-M01; Stressgen), ALK2 (sc-5671), Phospho-tyrosine (sc-7020), VE-cadherin (sc-6458), TIE2 (sc-324, sc-9026), STRO-1 (sc-47733), CD44 (sc-71220), CD90 (sc-9163), Osteocalcin (sc-74495, sc-23790), SOX9 (sc-20095), COL2A1 (sc-59958, sc-52658), PPARγ2 (sc-22022; Santa Cruz Biotechnology), vWF (ab68545; Abcam); His (A00174; GenScript); α-SMA (A5228), β-actin (A1978; Sigma-Aldrich). […] Images were acquired using a Nikon 80i fluorescence microscope. […]
(In general: A western blot detects proteins with antibodies after separation by electrophoresis.)

A further assay deals with HUVECs and HCMECs. In words: In vivo multipotency: polylactic acid scaffolds with pre-treated endothelial cells implanted into nude mice. On the set-up: species or system immunodeficient nude mice. The following applies: for co-expression of Qtracker label with osteocalcin, SOX9 or adiponectin in implants (immunohistochemistry): cells pre-labeled with quantum dots, pre-treated, implanted 6 weeks; for bone, cartilage or fat products in implanted scaffolds (alizarin red, alcian blue, oil red O): cells pre-treated, differentiation medium injected locally every 72 h for 6 weeks. The method, then: Cells were grown in StemPro osteogenic, chondrogenic, or adipogenic culture medium (Invitrogen). Alkaline phosphatase staining was performed using the alkaline phosphatase kit and protocol (Sigma-Aldrich) on cultures grown in osteogenic medium for 7 d to detect osteoblasts. Alizarin Red (Sigma-Aldrich) staining was performed for 30 min on cultures grown in osteogenic medium for 21 d to detect matrix calcification. Alcian Blue (Sigma) staining was used to stain chondrocyte proteoglycans for 5 minutes in cultures grown in chondrogenic medium for 14 d. Oil Red O (Sigma-Aldrich) staining was performed for 15 min on cultures grown in adipogenic medium for 7 d. For in vivo analysis, endothelial cells were labeled with fluorescent quantum dots using the Qtracker 525 Cell Labeling Kit (Invitrogen). Cells were treated in culture to induce EndMT then absorbed into OPLA polylactic acid scaffolds (BD Biosciences). Scaffolds were surgically implanted subcutaneously into immunodeficient nude mice (Nu/Nu strain; Charles River Laboratories). Local injection of StemPro differentiation medium (described above) was performed in the area of the implants every 72 h for 6 weeks. Scaffolds were cryosectioned and stained with Alizarin Red, Alcian Blue, or Oil Red O as described above. All procedures were reviewed and approved by the Institutional Animal Care and Use Committee at Harvard Medical School.

As for “BMP4: Recombinant BMP4 protein (R&D Systems), ALK2 activating ligand, used at 10 ng/mL”, in the assay with ALK2, the “ALK2 receptor phosphorylation (phospho-tyrosine)” value is listed as “induced receptor phosphorylation”. Also, in the assay with HUVECs and HCMECs, the “co-expression of Qtracker label with osteocalcin, SOX9 or adiponectin in implants (immunohistochemistry)” value is “co-expression of the Qtracker with osteocalcin, SOX9, or adiponectin” and the “bone, cartilage or fat products in implanted scaffolds (alizarin red, alcian blue, oil red O)” value was “formation of bone, cartilage, or fat products”.

For “TGF-β2: Recombinant TGF-β2 protein (R&D Systems), ALK2 activating ligand, used at 10 ng/mL”, the “ALK2 receptor phosphorylation (phospho-tyrosine)” value in the assay with ALK2 is reported as “induced receptor phosphorylation”. In the assay with HUVECs and HCMECs, the “co-expression of Qtracker label with osteocalcin, SOX9 or adiponectin in implants (immunohistochemistry)” value is on record as “co-expression of the Qtracker with osteocalcin, SOX9, or adiponectin” and the “bone, cartilage or fat products in implanted scaffolds (alizarin red, alcian blue, oil red O)” value was “formation of bone, cartilage, or fat products”.
